# Laboratory results from patent publication US6017918A, “Phenyl glycine compounds and methods of treating atherosclerosis and restenosis” (Warner-Lambert Company, priority 1999, dated 2000).
# Values joined by “and” are separate entries in the source; they are usually repeats but may differ in a detail not shown here. Identical values can stand only once.
# Tests used:
# [1] = system: apolipoprotein(a), [apo(a)], apolipoproteinB-100, [apoB-100], coupling reaction that generates Lp(a); assay: LPABC screen: lipoprotein(a) biochemical coupling assay, Lp(a) by ELISA; settings: recombinant apo(a) + HepG2 conditioned media, 67 minutes, 37° C.; ^a = multiple tests
# Description: The lipoprotein(a), [Lp(a)], biochemical coupling assay (LPABC) is used to characterize inhibitors of the apolipoprotein(a), [apo(a)], apolipoproteinB-100, [apoB-100], coupling reaction that generates Lp(a).
# Protocol Conditioned media from 293 cells (ATCC CRL-1573), permanently transfected with an apo(a) 17-kringle cDNA expression construct (pcDNA-AMP, In Vitrogen, Carlsbad, Calif.) using standard molecular biology techniques, was used as a source of recombinant apo(a). The 293 cell conditioned media containing the recombinant apo(a) is diluted 1:3 with phosphate buffered saline (PBS) and 90 μL is pipetted into each well of a 96-well plate and placed into a 37° C. incubator for 10 minutes. Twenty microliters of a 0.3 to 50 μM solution of a compound of the present invention in PBS is added to the warmed plate. Ninety microliters of HepG2 (ATCC HB-8065) cell conditioned media diluted 1:3 with PBS is added to the apo(a)/compound mixture and mixed by pipetting up and down 5 times. The reaction is incubated for 67 minutes in a 37° C. incubator. A 100 μL aliquot of the reaction is removed and assayed for its Lp(a) content by an enzyme linked immunosorbent assay (ELISA).
# [2] = system: Lp(a) production (HepG2^K17 cells); assay: LPA3 screen: inhibition of Lp(a) production in HepG2^K17 cells, Lp(a) by ELISA; assay type: cell-based; settings: 8 h, Lp(a) normalized for total protein, ^a = multiple tests
# Experimental: The LPA3 screen is used to identify compounds that inhibit Lp(a) production. This screen employs permanently transfected HepG2 cells (HepG2^K17) that are generated using an apo(a) 17-kringle cDNA expression construct (pcDNA-AMP, In Vitrogen, Carlsbad, Calif.) in accordance with methods that are well-known in molecular biology.
# HepG2^K17 cells are seeded in 96-well plates at a density of 75,000 cells per well in 0.25 mL of Dulbecco's Modified Eagle Media (DMEM) containing 10% fetal bovine serum (FBS). Seeded plates are incubated overnight in a 37° C., 5% CO2 /95% […] incubator. The media is removed, replaced with (1) fresh media, or (2) fresh media plus 0.3 to 50 μM of a compound of the present invention in 20 μL of PBS, and the plates returned to the incubator for 8 hours. After the additional 8 hours of incubation, Lp(a) is assayed in the media by ELISA. Cells are digested with 0.5N NaOH overnight and assayed for total protein. Lp(a) values are normalized for total protein content.
Structure (SMILES),IC50 [1],IC50 [2] [µM]
"CCOC(=O)C(NCC1CCCCC1)c1cc(-c2ccccc2)c(O)c(-c2ccccc2)c1 (centres unmarked) [Example 11, (Cyclohexylmethyl-amino)-(2'-hydroxy-[1,1';3',1""]terphenyl-5'-yl)-acetic acid ethyl ester]",60.2 µM,
CCOC(=O)C(NCc1cc(C(C)(C)C)c(O)c(C(C)(C)C)c1)c1cc(C(C)(C)C)c(O)c(C(C)(C)C)c1 (centres unmarked) [Example 18],75 µM,
"CC(C)(C)c1cc(C(NCc2cccnc2)C(=O)O)cc(C(C)(C)C)c1O (centres unmarked) [Example 7, (3,5-Di-tert-butyl-4-hydroxy-phenyl)-[(pyridin-3-ylmethyl)-amino]-acetic acid]",62.2 µM,
"CCOC(=O)C(c1cc(C(C)(C)C)c(O)c(C(C)(C)C)c1)N(C)C (centres unmarked) [Example 17, (3,5-Di-tert-butyl-4-hydroxy-phenyl)-dimethylamino-acetic acid ethyl ester]",0.65 µM,
"CCOC(=O)C(NCc1ccccc1F)c1cc(C(C)(C)C)c(O)c(C(C)(C)C)c1 (centres unmarked) [Example 40, (3,5-Di-tert-butyl-4-hydroxy-phenyl)-(2-fluoro-benzylamino]-acetic acid ethyl ester]",50.2 µM,> 74
"CCOC(=O)C(Nc1cccnc1)c1cc(C(C)(C)C)c(O)c(C(C)(C)C)c1 (centres unmarked) [Example 1, (3,5-Di-tert-butyl-4-hydroxy-phenyl)-[(pyridin-3-yl)-amino]-acetic acid ethyl ester]",6.48 µM,7.6
"CCOC(=O)C(NCc1ccc(O)c(OC)c1)c1cc(C(C)(C)C)c(O)c(C(C)(C)C)c1 (centres unmarked) [Example 49, (3,5-Di-tert-butyl-4-hydroxy-phenyl)-(4-hydroxy-3-methoxy-benzylamino)-acetic acid ethyl ester]",15 µM,> 74
"CCOC(=O)C(NCC1CC1)c1cc(C(C)(C)C)c(O)c(C(C)(C)C)c1 (centres unmarked) [Example 12, (Cyclopropylmethyl-amino)-(3,5-di-tert-butyl-4-hydroxy-phenyl)-acetic acid ethyl ester]",12.2 µM,
"CCOC(=O)C(NCc1ccc(OC)cc1)c1cc(C(C)(C)C)c(O)c(C(C)(C)C)c1 (centres unmarked) [Example 32, (3,5-Di-tert-butyl-4-hydroxy-phenyl)-(4-methoxy-benzylamino)-acetic acid ethyl ester]",29.6 µM,> 74
"CCOC(=O)C(c1cc(C(C)(C)C)c(O)c(C(C)(C)C)c1)N1CCN(C)CC1 (centres unmarked) [Example 55, (3,5-Di-tert-butyl-4-hydroxy-phenyl)-[(N'-methyl)-N-piperazinyl]-acetic acid ethyl ester]",1.66 µM,
"CCOC(=O)C(NCc1ccc(N)cc1)c1cc(C(C)(C)C)c(O)c(C(C)(C)C)c1 (centres unmarked) [Example 30, (4-Amino-benzylamino)-(3,5-di-tert-butyl-4-hydroxy-phenyl)-acetic acid ethyl ester]",62.6 µM,> 74
"CCOC(=O)C(NCc1ccc(N(C)C)cc1)c1cc(C(C)(C)C)c(O)c(C(C)(C)C)c1 (centres unmarked) [Example 38, (3,5-Di-tert-butyl-4-hydroxy-phenyl)-[4-dimethylamino-benzylamino]-acetic acid ethyl ester]",54 µM,> 74
"CCOC(=O)C(NCc1cccnc1)c1cc(C(C)(C)C)c(O)c(C(C)(C)C)c1 (centres unmarked) [Example 2, (3,5-Di-tert-butyl-4-hydroxy-phenyl)-[(pyridin-3-ylmethyl)-amino]-acetic acid ethyl ester]",10 µM,20
"CCOC(=O)C(NCc1ccc([N+](=O)[O-])cc1)c1cc(C(C)(C)C)c(O)c(C(C)(C)C)c1 (centres unmarked) [Example 45, (3,5-Di-tert-butyl-4-hydroxy-phenyl)-(4-nitro-benzylamino)-acetic acid ethyl ester]",96.8 µM,> 74
"CCOC(=O)C(NCC1CCCCC1)c1cc(C(C)(C)C)c(O)c(C(C)(C)C)c1 (centres unmarked) [Example 6, (Cyclohexylmethyl-amino)-(3,5-di-tert-butyl-4-hydroxy-phenyl)-acetic acid ethyl ester]",6.52 µM,> 74
"CCOC(=O)C(NCc1ccoc1)c1cc(C(C)(C)C)c(O)c(C(C)(C)C)c1 (centres unmarked) [Example 41, (3,5-Di-tert-butyl-4-hydroxy-phenyl)-[(furan-3-ylmethyl)-amino]-acetic acid ethyl ester]",9.37 µM,

Structure (SMILES),IC50 [1],IC50 [2] [µM]
"CCOC(=O)C(NCc1ccccc1OC)c1cc(C(C)(C)C)c(O)c(C(C)(C)C)c1 (centres unmarked) [Example 44, (3,5-Di-tert-butyl-4-hydroxy-phenyl)-(2-methoxy-benzylamino)-acetic acid ethyl ester]",54.3 µM,> 74
"CCOC(=O)C(NCc1ccncc1)c1cc(C(C)(C)C)c(O)c(C(C)(C)C)c1 (centres unmarked) [Example 3, (3,5-Di-tert-butyl-4-hydroxy-phenyl)-[(pyridin-4-ylmethyl)-amino]-acetic acid ethyl ester]",7.27 µM,25.4
"CCOC(=O)C(c1cc(C(C)(C)C)c(O)c(C(C)(C)C)c1)N1CCOCC1 (centres unmarked) [Example 54, (3,5-Di-tert-butyl-4-hydroxy-phenyl)-(N-morpholinyl)-acetic acid ethyl ester]",0.8 µM,1.3
"CCOC(=O)C(NCc1ccccc1)c1cc(C(C)(C)C)c(O)c(C(C)(C)C)c1 (centres unmarked) [Example 5, Benzylamino-(3,5-di-tert-butyl-4-hydroxy-phenyl)-acetic acid ethyl ester]",10.3 µM,76
"CCOC(=O)C(NCc1cc2c(cc1N)OCO2)c1cc(C(C)(C)C)c(O)c(C(C)(C)C)c1 (centres unmarked) [Example 31, [(6-Amino-benzo[1,3]dioxol-5-ylmethyl)-amino]-(3,5-di-tert-butyl-4-hydroxy-phenyl)-acetic acid ethyl ester]",21 µM,> 74
"CCOC(=O)C(NCc1ccc(C#N)cc1)c1cc(C(C)(C)C)c(O)c(C(C)(C)C)c1 (centres unmarked) [Example 34, (4-Cyano-benzylamino)-(3,5-di-tert-butyl-4-hydroxy-phenyl)-acetic acid ethyl ester]",57.6 µM,> 74
CCOC(=O)C(NCc1ccccn1)c1cc(C(C)(C)C)c(O)c(C(C)(C)C)c1 (centres unmarked) [Example 4],6.48 µM,9.1
"CCOC(=O)C(NCc1cc(Cl)cc(Cl)c1O)c1cc(C(C)(C)C)c(O)c(C(C)(C)C)c1 (centres unmarked) [Example 35, (3,5-Di-tert-butyl-4-hydroxy-phenyl)-(3,5-dichloro-2-hydroxy-benzylamino)-acetic acid ethyl ester]",15.9 µM,> 74
"CCOC(=O)C(c1cc(C(C)(C)C)c(O)c(C(C)(C)C)c1)N(Cc1cccnc1)Cc1cccnc1 (centres unmarked) [Example 9, (Bis-pyridin-3-ylmethyl-amino)-(3,5-di-tert-butyl-4-hydroxy-phenyl)-acetic acid ethyl ester]",1.34 µM and 1.3 µM,
"CCOC(=O)C(NCc1ccccc1Cl)c1cc(C(C)(C)C)c(O)c(C(C)(C)C)c1 (centres unmarked) [Example 33, (2-Chloro-benzylamino)-(3,5-di-tert-butyl-4-hydroxy-phenyl)-acetic acid ethyl ester]",43.4 µM,> 74
"CCOC(=O)C(NC1CCCCC1)c1cc(C(C)(C)C)c(O)c(C(C)(C)C)c1 (centres unmarked) [Example 8, (3,5-Di-tert-butyl-4-hydroxy-phenyl)-[(cyclohexyl)-amino]-acetic acid etyl ester]",4.16 µM,
"CCNC(C(=O)OCC)c1cc(C(C)(C)C)c(O)c(C(C)(C)C)c1 (centres unmarked) [Example 51, (3,5-Di-tert-butyl-4-hydroxy-phenyl)-(ethylamino)-acetic acid ethyl ester]",10.9 µM,
"CCOC(=O)C(NCc1ccc(O)cc1)c1cc(C(C)(C)C)c(O)c(C(C)(C)C)c1 (centres unmarked) [Example 43, (3,5-Di-tert-butyl-4-hydroxy-phenyl)-(4-hydroxy-benzylamino)-acetic acid ethyl ester]",,> 74
"CCOC(=O)C(NCc1cccc(Cl)c1)c1cc(C(C)(C)C)c(O)c(C(C)(C)C)c1 (centres unmarked) [Example 10, (3-Chloro-benzylamino)-(3,5-di-tert-butyl-4-hydroxy-phenyl)-acetic acid ethyl ester]",12.5 µM,
"CCOC(=O)C(NCC1CCCCC1)c1cc(C(C)CC)c(O)c(C(C)CC)c1 (centres unmarked) [Example 13, (Cyclohexylmethyl-amino)-(3,5-di-sec-butyl-4-hydroxy-phenyl)-acetic acid ethyl ester]",67.4 µM,
"CCOC(=O)C(NCc1ccc(OCCN(CC)CC)cc1)c1cc(C(C)(C)C)c(O)c(C(C)(C)C)c1 (centres unmarked) [Example 37, (3,5-Di-tert-butyl-4-hydroxy-phenyl)-[4-(2-diethylamino-ethoxy)-benzylamino]-acetic acid ethyl ester]",29.6 µM,
